Results taken from patent US10322136B2, “Composition for inhibiting growth or proliferation of chronic myelogenous leukemia cancer stem cells, and screening method therefor” (HIROSHIMA UNIVERSITY, priority 2015, dated 2019).
Structures can show the parent of a compound that is named as a salt. Where a SMILES comes first, the peptide text is derived from it. [ ]: non-standard residue; d: D form. Sar = CNCC(=O)O

What was measured:
CML-KLS+ cells [1] = experiment: Metabolomic analysis of CML-KLS+ cells treated in vitro with protein degradation inhibitors; assay type: cell-based, mouse; settings: 100 nM, 2 hrs in vitro, hypoxic (3% O2)
Protocol: (§1) To detect inhibition of dipeptide uptake in vivo, immature KLS^+ cells were isolated from tet-inducible CML-affected (Tal1-tTA^+TRE-BCR-ABL1^+) mice (n=4 mice in each of the three independent experiments), and normal healthy littermate (Tal1-tTA^+) mice (n=6 mice in each of the two independent experiments) that had received vehicle or cefadroxil (36 mgKg^−1day^−1) by oral gavage for 30 days. […] In all cases, isolated cell pellets were frozen at −80° C. immediately after obtaining. Metabolomic profiling was performed by Metabolon Inc. (Durham, N.C.) using ultrahigh-performance liquid chromatography/mass spectroscopy (UPLC/MS/MS) and gas chromatography/MS (GC/MS). Data were compiled using the Metabolon LIMS (Laboratory Information Management System). The UPLC/MS/MS portion of the platform was based on a Waters Acquity UPLC (Waters) and a Q-Exactive high-resolution/accurate mass spectrometer (Thermo Scientific) interfaced with a heated electrospray ionization (HESI-II) source and Orbitrap mass analyzer. GC/MS was performed by a Trace DSQ fast-scanning single-quadrupole mass spectrometer using electron impact ionization (Thermo-Finnigan).

Raptor-Ser863 = experiment: Duolink in situ PLA, Raptor-Ser863 phosphorylation in LT-CML cancer stem cells; assay type: cell-based, mouse; settings: 30 min; GlySar or cefadroxil 5 μM; rapamycin 100 nM
Protocol: (§2) To examine phosphorylation of Smad2, Smad3, p38MAPK, AMPK, and S6 ribosomal protein, and Foxo3a-Smad2 and Foxo3a-Smad3 interactions, Duolink® in situ PLA assay (Olink Bioscience) was used. LT-CML stem cells, ST-CML stem cells, CD48^+, MPP, and KLS^− CML cells that were freshly isolated from CML-affected mice, and LT-normal HSCs that were freshly isolated from healthy control littermates, were immediately fixed with 4% paraformaldehyde for 30 min.
(§3) For in vitro inhibitor experiments, LT-CML stem cells were incubated in 3% O2 at 37° C. for 30 min with vehicle (control; artificial gastric fluid solution (900 ml ddH2O containing 2.0 g of NaCl, 7 ml of conc. HCl and 3.2 g of pepsin)), 5 μM Ly364947 (TGF-β type I receptor kinase Alk5 inhibitor; Merck), 5 μM SB203580 (p38MAPK inhibitor; LC Laboratories), 5 μM GlySar (dipeptide transporter inhibitor; Sigma-Aldrich), 5 μM cefadroxil (dipeptide transporter inhibitor; Sigma-Aldrich), or 100 nM rapamycin (mTORC1 inhibitor; Cell Signaling Technologies). […]
(§4) The proximate binding of these antibodies was then detected using Duolink® in situ PLA system which employs a set of two secondary antibodies in which one is conjugated to a minus strand PLA probe and the other is conjugated to a plus strand PLA probe. […] The number of fluorescent foci per single cell was quantified using Duolink®Image Tool software (Olink Bioscience).

S6 ribosomal protein = experiment: Duolink in situ PLA, S6 ribosomal protein phosphorylation in LT-CML cancer stem cells; assay type: cell-based, mouse; settings: 30 min; GlySar or cefadroxil 5 μM; rapamycin 100 nM
Protocol: as §2, §3, §4

AMPK = experiment: Duolink in situ PLA, AMPK phosphorylation in LT-CML cancer stem cells; assay type: cell-based, mouse; settings: LT-CML cancer stem cells in vitro
Protocol: as §2
(§5) For in vitro inhibitor experiments, LT-CML stem cells were incubated in 3% O2 at 37° C. for 30 min with vehicle (control; artificial gastric fluid solution (900 ml ddH2O containing 2.0 g of NaCl, 7 ml of conc. HCl and 3.2 g of pepsin)), 5 μM Ly364947 (TGF-β type I receptor kinase Alk5 inhibitor; Merck), 5 μM SB203580 (p38MAPK inhibitor; LC Laboratories), 5 μM GlySar (dipeptide transporter inhibitor; Sigma-Aldrich), 5 μM cefadroxil (dipeptide transporter inhibitor; Sigma-Aldrich), or 100 nM rapamycin (mTORC1 inhibitor; Cell Signaling Technologies). Treated cells were fixed with 4% paraformaldehyde for 30 min, and treated with 0.25% Triton X-100 for 15 min, washed and blocked by incubation in 5% FBS in TBS for 1 hr.
(§6) The proximate binding of these antibodies was then detected using Duolink® in situ PLA system which employs a set of two secondary antibodies in which one is conjugated to a minus strand PLA probe and the other is conjugated to a plus strand PLA probe. Nuclei were stained with DNA marker DAPI (Sigma). Stained slides were mounted using Fluoromount Plus (Diagnostic Biosystems) and fluorescent images were acquired by confocal microscopy (FV10i, Olympus) and Photoshop software (Adobe). The number of fluorescent foci per single cell was quantified using Duolink®Image Tool software (Olink Bioscience).

Raptor-Ser792 = Raptor-Ser792 phosphorylation in LT-CML cancer stem cells; assay type: cell-based, mouse; settings: LT-CML cancer stem cells in vitro
Smad3 Ser208 = experiment: Duolink in situ PLA, Smad3 Ser208 phosphorylation in LT-CML cancer stem cells; assay type: cell-based, mouse
Protocol: as §2, §5, §6

CML-KLS+ cells [2] = experiment: Metabolomic analysis of dipeptides in KLS+ cells from treated CML-affected mice; assay type: in vivo, mouse; settings: IM 100 mg/kg/day for 30 days (1 month)
Protocol: as §1

SLC15A2 mRNA = settings: nine CML patients, 1 month after IM therapy; public database; cited from earlier work

| Compound | dipeptide accumulation (CML-KLS+ cells [1]) | individual amino-acid levels (CML-KLS+ cells [1]) | phosphorylation of AMPK (AMPK) | Raptor-Ser792 phosphorylation (Raptor-Ser792) | further results |
| --- | --- | --- | --- | --- | --- |
| CO/C1=C\C(C)=C\[C@@H](C)[C@@H](O)[C@@H](C)C/C(C)=C/C=C/[C@H](OC)[C@@H]([C@@H](C)[C@@H](O)[C@H](C)[C@@]2(O)C[C@@H](O)[C@H](C)[C@@H](C(C)C)O2)OC1=O [Bafilomycin A1] | increased significantly | decreased | – | – | – |
| CC(C)C[C@H](NC(=O)[C@H](Cc1ccccc1)NC(=O)c1cnccn1)B(O)O [Bortezomib] | increased significantly | decreased | – | – | – |
| CN(CC(=O)O)C(=O)CN [GlySar, glycylsarcosine] (H-Gly-[Sar]-OH) | – | – | increased | did not promote | phosphorylation of Raptor-Ser863 (Raptor-Ser863): decreased phosphorylation; phosphorylation of S6 (S6 ribosomal protein): decreased phosphorylation; Smad3 Ser208 phosphorylation (Smad3 Ser208; 30 min, GlySar or cefadroxil 5 μM, rapamycin 100 nM): blocked |
| Cc1ccc(NC(=O)c2ccc(CN3CCN(C)CC3)cc2)cc1Nc1nccc(-c2cccnc2)n1 [IM, imatinib mesylate] | – | – | – | – | dipeptide levels in CML-KLS+ cells (CML-KLS+ cells [2]): tended to decrease; levels of phospho-Smad3-Ser208 (Smad3 Ser208; IM treatment of murine LT-CML stem cells in vitro): reduced; SLC15A2 mRNA levels in CML patients (SLC15A2 mRNA): decreased to a level comparable to that in healthy individuals |
| CN(C)C(=N)N=C(N)N [Metformin] | – | – | increases | increases | – |
